In publication PMC6896172, “Successful Targeting of the Warburg Effect in Prostate Cancer by Glucose-Conjugated 1,4-Naphthoquinones” (Cancers, 2019):

Experiments:
[1] = test system: MRC-9 cells; assay: MTT cytotoxicity assay in MRC-9 cells; format: cell-based; settings: Homo sapiens, MRC9, 48 h of treatment, non-cancer
Experimental: (§1) Dr. Dr. med. Sonja Loges (University Medical Center Hamburg-Eppendorf, Hamburg, Germany). Cells were cultured according to the manufacturers’ instructions and were recently authenticated by a commercial service (Multiplexion, Heidelberg, Germany). Culture conditions are described in the Supplementary Information.
(§2) MTT (3-(4,5-dimethylthiazol-2-yl)-2,5-diphenyltetrazolium bromide) cytotoxicity assay was used for the evaluation of cytotoxicity of the compounds or their combinations. Experiments were performed as previously described. In brief, 6000 cells/well were seeded in 96-well plate, incubated overnight, and treated with the drugs in 100 µL/well of 10% FBS/RPMI media containing 2 g/L of D-(+)-glucose for 48 h, unless otherwise stated. For 2 h treatment the cells were treated with the drugs for 2 h in the culture media, then the media was exchanged to fresh drug-free media (100 µL/well) containing MTT reagent and the further steps were performed as previously described.

[2] = test system: HEK293 cells; assay: MTT cytotoxicity assay in HEK293 cells; format: cell-based; settings: Homo sapiens, 48 h of treatment, non-cancer
Experimental: as §1, §2

[3] = test system: VCaP cells; assay: MTT cytotoxicity assay in VCaP cells; format: cell-based; settings: Homo sapiens, 48 h of treatment, cancer
Experimental: as §1, §2

[4] = test system: 22Rv1 cells; assay: MTT cytotoxicity assay in 22Rv1 cells; format: cell-based, human; settings: for IC50: Homo sapiens
Experimental: as §1, §2

[5] = test system: 22Rv1 cells; assay: Trypan blue exclusion viability assay; format: cell-based; settings: Homo sapiens, 48 h of treatment
Experimental: The in vitro effect of the drugs on cell viability and proliferation was evaluated using trypan blue exclusion assay as described before with minor modifications. In brief, cells (0.2 × 10^6 cells/well) were seeded in 12-well plates, incubated overnight, the media was replaced with fresh media (1 mL/well) and treated with the drugs for 48 h. Cells were harvested by trypsination and the viability was measured using trypan blue staining and Beckman Coulter Vi-CELL (Beckman Coulter, Krefeld, Germany).

[6] = test system: 22Rv1 cells; assay: Mitochondrial membrane potential assay (JC-1, flow cytometry); format: cell-based, human; settings: 2 h of treatment
Experimental: The loss of mitochondrial membrane potential (Δψ) was measured by flow cytometry technique using staining with Δψ-sensitive dye JC-1 (5,5′,6,6′-tetrachloro-1,1′,3,3′-tetraethylimidacarbocyanine iodide). Cells were seeded in 12-well plates (100 × 10^3 cells/well in 1 mL/well) and incubated overnight. Then, the media was changed to PBS (1 mL/well) containing the investigational drugs. After 2 h of incubation (37 °C, 5% CO2, in the dark) the cells were trypsinized, pelleted, resuspended in 100 µL of 2 µM JC-1/PBS, incubated for 1 h (37 °C, 5% CO2, in the dark) and Δψ loss was measured by flow cytometry technique.

[7] = test system: 22Rv1 cells; assay: Colony formation assay; format: cell-based, human; settings: 22Rv1 cells treated with non-cytotoxic concentrations for 48 h
Experimental: Colony formation assays were performed as described before. In brief, cells were treated with the drugs for 48 h and then 100 alive cells were plated into each well of 6-well plates and incubated for 10 days. Surviving colonies were fixed, stained with Giemsa solution and counted.

[8] = test system: 22Rv1 cells; assay: Western blotting of treated cells; format: cell-based, human
Experimental: Preparation of protein extracts for western blotting was performed as described previously. In brief, for western blotting, 1 × 10^6 cells/well were seeded in Petri dishes (ø 6 cm TC Dish (Sarstedt, Numbrecht, Germany) in 5 mL/dish), incubated overnight and treated with drugs in 5 mL/dish for an indicated time. Cells were harvested using a cell scraper, pelleted, and resuspended in the lysis buffer containing protease and phosphatase inhibitors. Further sample preparation and western blotting were performed as previously described with slight modifications. Relative optical density of the detected bands was quantified with Quantity One 4.6 software (Bio-Rad, Hercules, CA, USA). The primary and secondary antibodies used are listed in the Supplementary Information.

CC1(C)OC2OC(C(O)COC3=CC(=O)c4cccc(O)c4C3=O)C(O)C2O1 (centres unmarked) [Compound 11]
IC50 [1]: 3.74 µM | IC50 [2]: 4.46 µM | IC50 [3]: 3.11 µM | effect of N-acetyl-L-cysteine pre-treatment on cytotoxic activity ([4]; 22Rv1 cells, 1 mM NaC 1 h then co-treatment 48 h, FBS- and glucose-free RPMI): significantly suppressed the cytotoxic activity | IC50 ([4]; 22Rv1, 48 h of treatment, cancer, read-out: IC50 (22Rv1)): 0.71 µM | IC50 ([4]; 22Rv1 cells, 2 h treatment, read-out: IC50 after 2 h of treatment): 20.4 µM | IC50 [5]: 2.04 µM | effect on ΔΨm [6]: quick ΔΨm loss | cancer cell colony formation [7]: suppress cancer cell colony formation | cleavage of caspase-9 ([8]; 2 h and 48 h treatment): observed already after 2 h | ERK1/2 activity ([8]; 2 h treatment): suppressed | MEK1/2 alteration ([8]; 2 h treatment): No significant alteration | activation of Akt ([8]; 2 h treatment): slight Akt activation | activation of p38 and JNK1/2 ([8]; 2 h treatment): pronounced activation | AR-FL and AR-V7 expression ([8]; 48 h treatment): downregulated both, AR full length (AR-FL) and AR-V7 | Bax and Bcl-2 expression ([8]; 48 h treatment): up-regulation of Bax and down-regulation of Bcl-2 | LC3B-II and SQSTM1 levels (autophagy markers) ([8]; pre-cytotoxic and cytotoxic concentrations, 48 h): accumulation of both, LC3B-II and SQSTM1
